Reference: publication PMC7617869, “Molecular glues that inhibit deubiquitylase activity and inflammatory signaling” (Nature Structural & Molecular Biology, 2025)
Where “and” joins values, the source holds several entries; their conditions need not be identical. Equal values may be shown once.

Tested on: ISG expression in SSc PBMCs
Assay: SSc PBMC type I IFN signaling gene expression array, unstimulated
Assay type: cell-based, human
Procedure: PBMCs in vitro experiments
Peripheral blood mononuclear cells (PBMCs) from healthy and SSc donors were separated using density gradient method (Leucosep™, Greiner Bio-One International) from EDTA anticoagulated peripheral blood; isolated cells were washed twice by PBS. PBMCs were then incubated in RPMI1640 […]
For healthy PBMCs, cells were stimulated with 20 ng/mL of IFN (+/- compounds or DMSO). For SSc PBMCs, cells were in basal conditions with no additional IFN stimulation. Cells were centrifuged at 300 g for 10 minutes. […]
RNA was extracted from cell pellets using TRIzol™ (ThermoFisher
Scientific, Waltham, MA) and processed using Quick-RNA Miniprep Kit (Zymo Research) as per the manufacturer’s instruction.
For Type I IFN signalling analysis, the human IFN I RT2 Profiler PCR Array (Qiagen, PAMM-016ZE) was performed on available RNA from healthy (n=3) and SSc (n=9) donors. RNA was converted to cDNA using RT2 First Strand Kit (Qiagen). Next, the cDNA was mixed with RT2 SYBR Green Mastermix (Qiagen, Venlo). Successful PCR performance was confirmed by assay tests for genomic DNA contamination, RNA sample quality, as well as single melt curve determination and <35 Ct for each gene, leading to validated gene expression of 67 genes. Relative expression for each gene was determined, firstly by ∆CT calculated using the geometric mean of 4 housekeeping genes (ACTB, GAPDH, HPRT1, RPLP0), followed by 2^(-∆CT), and expressed as fold change to control, according to manufacturer’s guidance. IFN2α-induced ISGs in healthy donors were determined using a Student’s t-test (two-tail distribution and equal variances) on the triplicate fold change in 2^(-ΔCT) values between […]
donors). Heatmaps were generated using the “pheatmap” function in R (v4.0.2) and RStudio (v1.3.1093) applying row scaling to standardise the expression data across samples (R core team 2020.
R Foundation for Statistical Computing). The IFN2α inducible genes determined in healthy donors […]
171-C. To account for Type I IFN signalling heterogeneity across samples, the mean 2^(-∆CT) for each […]
relative gene expression, illustrated as a fold change and visualised in log2. The Type I IFN signalling array data for the patient samples is included in Source Data Figure 6, Extended Data Fig. 9.

[1] = unstimulated PBMCs from SSc patients, one value per patient (P1-P9)

For O=C(NC1C2CNCC21)c1nn(C(=O)c2c(Cl)cccc2Cl)cc1NC(=O)c1c(Cl)cccc1Cl (centres unmarked) [FX-171-C], the “ISG expression (in words)” value (SSc PBMCs (n = 9), 2 µM, 16 h, compared to AP-5-145) was “lesser effect”, the “ADAR, Type I IFN signalling array raw data” value [1] was 3.858 and 4.274 and 4.001 and 4.68 and 4.777 and 4.208 and 3.331 and 4.913 and 3.918 and the “BST2, Type I IFN signalling array raw data” value [1] was 3.573 and 2.8591 and 2.177 and 3.614 and 3.672 and 2.327 and 3.468 and 1.591 and 2.873. For the same molecule, the “CASP1, Type I IFN signalling array raw data” value [1] was 2.548 and 2.002 and 1.941 and 1.134 and 2.888 and 1.296 and 2.046 and 2.574 and 1.867, the “CD86, Type I IFN signalling array raw data” value [1] was 6.165 and 2.65 and 5.65 and 3.485 and 4.729 and 3.419 and 6.169 and 4.499 and 4.78 and the “CXCL10, Type I IFN signalling array raw data” value [1] was 5.471 and 2.917 and 2.582 and 4.742 and 4.877 and 6.905 and 4.483 and 4.8707 and 3.923. For the same molecule, the “DDX58, Type I IFN signalling array raw data” value [1] was 3.35 and 3.309 and 2.1354 and 2.913 and 3.785 and 3.502 and 1.974 and 1.829 and 2.968, the “GBP1, Type I IFN signalling array raw data” value [1] was 2.688 and 1.367 and 1.422 and 2.895 and 1.583 and 2.086 and 0.7206 and 2.179 and 0.5673 and the “IFI6, Type I IFN signalling array raw data” value [1] was 3.893 and 2.681 and 0.9581 and 2.49 and 3.897 and 2.026 and 3.3942 and 1.435 and 1.657. The “IFI16, Type I IFN signalling array raw data” value [1] was 1.765 and 1.775 and 1.077 and 1.992 and 2.377 and 1.622 and 1.064 and 1.533 and 1.821, the “IFIH1, Type I IFN signalling array raw data” value [1] was 4.423 and 3.6 and 2.511 and 3.468 and 5.097 and 3.98 and 3.849 and 3.949 and 3.417 and the “IFIT1, Type I IFN signalling array raw data” value [1] was 4.29 and 4.385 and 1.626 and 3.83 and 6.5533 and 6.518 and 4.252 and 2.844 and 3.475. For the same molecule, the “IFIT2, Type I IFN signalling array raw data” value [1] was 4.664 and 3.908 and 1.678 and 5.248 and 5.235 and 3.764 and 3.486 and 3.028 and 3.269, the “IFIT3, Type I IFN signalling array raw data” value [1] was 3.799 and 3.675 and 1.209 and 4.928 and 5.414 and 5.436 and 3.503 and 5.877 and 2.486 and the “IFITM1, Type I IFN signalling array raw data” value [1] was 0.9488 and 1.1781 and 0.3954 and 0.8994 and 1.9714 and 0.8768 and 1.144 and 1.6293 and 0.7125. For the same molecule, the “IFITM2, Type I IFN signalling array raw data” value [1] was 4.648 and 5.173 and 4.79 and 4.974 and 4.481 and 3.9861 and 4.845 and 5.367 and 4.762, the “IFITM3, Type I IFN signalling array raw data” value [1] was 3.968 and 3.916 and 1.59 and 3.568 and 4.151 and 2.877 and 3.902 and 1.131 and 2.5357 and the “IRF1, Type I IFN signalling array raw data” value [1] was 2.547 and 1.821 and 1.073 and 2.335 and 1.158 and 0.9908 and 0.6649 and 1.927 and 1.207. The “IRF7, Type I IFN signalling array raw data” value [1] was 6.802 and 6.586 and 3.986 and 5.798 and 5.443 and 4.601 and 5.372 and 4.2831 and 3.547, the “IRF9, Type I IFN signalling array raw data” value [1] was 2.19 and 2.335 and 0.975 and 2.229 and 2.461 and 1.8963 and 1.69 and 1.214 and 1.521 and the “ISG15, Type I IFN signalling array raw data” value [1] was 3.986 and 3.922 and 0.692 and 4.262 and 5.477 and 7.495 and 2.508 and 1.711 and 2.311. For the same molecule, the “ISG20, Type I IFN signalling array raw data” value [1] was 2.62 and 3.224 and 2.385 and 3.3 and 3.623 and 2.618 and 2.595 and 4.036 and 2.585, the “MX1, Type I IFN signalling array raw data” value [1] was 3.107 and 4.405 and 1.261 and 5.21 and 5.062 and 3.692 and 3.866 and 4.591 and 2.854 and the “MX2, Type I IFN signalling array raw data” value [1] was 4.125 and 4.0818 and 1.607 and 3.741 and 5.0213 and 4.032 and 3.318 and 2.653 and 2.691. The “MYD88, Type I IFN signalling array raw data” value [1] was 3.738 and 3.075 and 2.51 and 2.925 and 2.927 and 2.376 and 3.074 and 1.908 and 3.454, the “NMI, Type I IFN signalling array raw data” value [1] was 2.143 and 1.85 and 1.491 and 1.973 and 3.716 and 1.264 and 1.346 and 2.497 and 2.32 and the “OAS1, Type I IFN signalling array raw data” value [1] was 4.424 and 3.836 and 1.737 and 5.327 and 4.793 and 3.413 and 3.498 and 2.187 and 2.863. For the same molecule, the “OAS2, Type I IFN signalling array raw data” value [1] was 4.608 and 3.615 and 1.642 and 3.798 and 4.119 and 3.655 and 2.504 and 2.941 and 2.821, the “PML, Type I IFN signalling array raw data” value [1] was 4.552 and 5.075 and 2.988 and 4.3611 and 4.177 and 3.436 and 3.3349 and 3.807 and 3.407 and the “SOCS1, Type I IFN signalling array raw data” value [1] was 3.578 and 4.266 and 3.582 and 3.8466 and 3.6323 and 2.7 and 3.416 and 2.793 and 2.573. The “STAT1, Type I IFN signalling array raw data” value [1] was 0.977 and -0.7577 and -0.7275 and 0.7898 and -0.2011 and 0.5637 and -1.166 and 0.2201 and -0.8389, the “STAT2, Type I IFN signalling array raw data” value [1] was 3.968 and 3.159 and 2.8038 and 5.573 and 3.712 and 3.001 and 2.882 and 3.307 and 2.683 and the “STAT3, Type I IFN signalling array raw data” value [1] was 6.676 and 4.39 and 1.897 and 3.494 and 2.053 and 1.773 and 1.353 and 3.435 and 1.673. For the same molecule, the “TAP1, Type I IFN signalling array raw data” value [1] was 2.3591 and 1.9257 and 1.563 and 2.7124 and 1.578 and 1.336 and 0.8182 and 1.844 and 1.137 and the “TNFSF10, Type I IFN signalling array raw data” value [1] was 3.902 and 3.285 and 2.141 and 3.031 and 3.789 and 2.995 and 3.1028 and 5.015 and 2.882.
